pIC50: −log10 of the molar value. Activity calls are given as the source filed them. The rule behind the calls is not given here. Where only a bound is given, the exact number is not on record here.

Experimental findings from ChEMBL document CHEMBL3877284, “Discovery of novel dengue virus NS5 methyltransferase non-nucleoside inhibitors by fragment-based drug design” (Eur J Med Chem, 2017) are described below.

Series [1] is described as follows: Inhibition of Dengue virus 3 NS5 N7-MTase activity assessed as reduction in [3H]AdoMet transfer to GpppA2'OMe-RNA74 substrate after 30 mins by microbeta liquid scintillation counting method. Further details: species or system dengue virus type 3.
Series [2] in a line: Inhibition of Dengue virus 3 NS5 2'-O-MTase activity assessed as reduction in [3H]AdoMet transfer to 7MeGpppAC4 capped RNA substrate after 30 mins by microbeta liquid scintillation counting method. Also noted: species or system dengue virus type 3.
A short description of series [3]: Inhibition of West Nile virus Uganda strain B956 NS5 2'-O-MTase activity assessed as reduction in [3H]AdoMet transfer to 7MeGpppAC4 capped RNA substrate after 30 mins by microbeta liquid scintillation counting method.
A short description of series [4]: Cytotoxicity against African green monkey Vero E6 cells up to 100 uM. Type of series: toxicity, cell-based. The note with it: chlorocebus sabaeus.
Another series relates to dengue virus type 3. Description: Binding affinity to Dengue virus 3 NS5 methyl transferase domain by thermal shift assay.

Take `Nc1cc(C(F)(F)F)ccc1NC(=O)Nc1cccc(S(=O)(=O)Nc2ccc(C(=O)O)cc2)c1`: the negative-log IC50 (pIC50) (in general, the negative decadic logarithm of the IC50, by convention in mol/L) in series [1] was 2.95; in series [2] it was 4.04; in series [3] it was 4.29. For the same compound, the Activity result in series [4] was “Non-Toxic”.
For `Nc1cc(Cl)ccc1NC(=O)Nc1cccc(S(=O)(=O)Oc2ccc(C(=O)O)cc2)c1`, the results for the negative logarithm of the IC50 (pIC50) in series [1], in series [2] and in series [3] were less than 3.00, 3.43 and 3.92, respectively.
For the compound `Nc1ccc(C(F)(F)F)cc1N`, in series [2], the negative logarithm of the IC50 (pIC50) was 2.05. The result in the series with dengue virus type 3 was Active.
Turning to `Cc1ccc(C(=O)O)c(N)c1`, the pIC50 in series [2] was 2.55. Moreover, in the series on dengue virus type 3, the result was Active.
For the compound `Nc1cc(Cl)ccc1NC(=O)Nc1ccc(S(=O)(=O)Oc2ccc(C(=O)O)cc2)cc1`, the figures for the pIC50 in series [1], in series [2] and in series [3] were less than 3.00, 3.43 and 3.72, respectively.
For the compound `Nc1cc(C(F)(F)F)ccc1NC(=O)Nc1ccc(S(=O)(=O)Nc2ccc(C(=O)O)cc2)cc1`, the results for the negative-log IC50 (pIC50) in series [1], in series [2] and in series [3] were 3.13, 3.96 and 4.15, respectively. Besides, the Activity entry in series [4] was “Non-Toxic”.
Regarding `Nc1cc(Cl)ccc1NC(=O)Nc1cccc(S(=O)(=O)Nc2ccc(C(=O)O)cc2)c1`, the figures for the negative-log IC50 (pIC50) in series [1], in series [2] and in series [3] were less than 3.00, 3.34 and 3.74, respectively.
For `Cc1cc(N)c(N)cc1Cl`, the negative-log IC50 (pIC50) in series [2] is 2.03. In addition, in the series on dengue virus type 3, the outcome was Active.
Regarding `Nc1cc(Cl)ccc1NC(=O)Nc1ccc(S(=O)(=O)Nc2ccc(C(=O)O)cc2)cc1`, the negative logarithm of the IC50 (pIC50) in series [1] was less than 3.00; in series [2], 3.36; in series [3], 3.52.
